The results in this text go back to patent US8575158B2, “1-phenyl-substituted heterocyclyl derivatives and their use as prostaglandin D2 receptor modulators” (Actelion Pharmaceuticals Ltd., priority 2010, dated 2013).

In general, IC50 refers to the concentration that inhibits the measured activity by half. Read a high IC50 as lower potency.

For the experiment, the target named is T1, hCRTH2 receptor (Homo sapiens, UniProt Q9Y5Y4).
T1 construct: expressed in transfected cells; host or cells: HEK293
T1 sequence (Q9Y5Y4 1-395): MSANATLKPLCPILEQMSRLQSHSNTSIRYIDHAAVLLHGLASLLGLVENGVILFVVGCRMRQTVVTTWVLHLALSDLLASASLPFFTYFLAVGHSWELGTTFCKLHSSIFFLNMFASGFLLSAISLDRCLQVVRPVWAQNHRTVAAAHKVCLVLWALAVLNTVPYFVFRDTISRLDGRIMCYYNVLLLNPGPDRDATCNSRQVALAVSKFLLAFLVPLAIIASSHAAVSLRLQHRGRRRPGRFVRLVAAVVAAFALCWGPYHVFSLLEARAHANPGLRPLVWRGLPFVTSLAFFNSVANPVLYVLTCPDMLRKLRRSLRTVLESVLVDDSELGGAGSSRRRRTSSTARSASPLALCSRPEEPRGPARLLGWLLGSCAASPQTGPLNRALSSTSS
Kind of experiment: Radioligand displacement assay (3H-PGD2) on hCRTH2 receptor membranes. It counts as binding. Particulars: antagonistic activity.

The mark [1] stands for this setting: 3H-PGD2 radioligand displacement, HEK293-hCRTH2 membranes.
[2] abbreviates: 3H-PGD2 displacement on HEK293-hCRTH2 membrane fragments.

As to `O=C(O)COc1ccc(Cl)cc1C1c2ccccc2CN1C(=O)CCn1ncc2ccc(F)cc21` (single isomer, unassigned) [Example 546, (4-Chloro-2-{2-[3-(6-fluoro-indazol-1-yl)-propionyl]-2,3-dihydro-1H-isoindol-1-yl}-phenoxy)-acetic acid], the IC50 under setting [1] is 210 nM. `Cc1nn(CCC(=O)N2Cc3ccccc3C2c2cc(Cl)ccc2OCC(=O)O)c2cccc(F)c12` (single isomer, unassigned) [Example 528, (4-Chloro-2-{2-[3-(4-fluoro-3-methyl-indazol-1-yl)-propionyl]-2,3-dihydro-1H-isoindol-1-yl}-phenoxy)-acetic acid] displayed a half-maximal inhibitory concentration (IC50) under setting [1] of 33.2 nM. The same measure, in the same setting: the result for `O=C(O)COc1ccc(Cl)cc1C1c2ccccc2CCN1C(=O)CCn1ccc2c(F)cccc21` (racemic) [Example 387] reads 36.7 nM.

Molecule `NC(=O)c1ccc(OCC(=O)O)c(C2c3ccccc3CCN2C(=O)OCc2ccccc2)c1` (racemic) [Example 213, (±)-1-(5-Carbamoyl-2-carboxymethoxy-phenyl)-3,4-dihydro-1H-isoquinoline-2-carboxylic acid benzyl ester] returned an IC50 under setting [2] of 344 nM.

As to `O=C(O)COc1ccc(Cl)cc1C1c2ccccc2CCN1C(=O)COc1ccccc1F` (racemic) [Example 410], under setting [1], the half-inhibitory concentration (IC50) is 70.7 nM. Take `O=C(O)COc1ccc(F)cc1C1c2ccccc2CCN1C(=O)CN1Cc2ccccc2C1` (racemic) [Example 63, (±)-{2-[2-(2-1,3-Dihydro-isoindol-2-yl-acetyl)-1,2,3,4-tetrahydro-isoquinolin-1-yl]-4-fluoro-phenoxy}-acetic acid]: the concentration for half-maximal inhibition (IC50) under setting [2] came to 871 nM. The same measure, in the same setting: the result for `O=C(O)COc1ccc(Cl)cc1C1c2ccccc2CCN1C(=O)Cn1cc2ccccc2n1` (racemic) [Example 80, (±)-{4-Chloro-2-[2-(2-indazol-2-yl-acetyl)-1,2,3,4-tetrahydro-isoquinolin-1-yl]-phenoxy}-acetic acid] reads 46.9 nM. For the molecule `O=C(O)COc1ccc(Cl)cc1C1c2ccc(F)cc2CCN1C(=O)COCc1ccccc1Cl` (racemic) [Example 437], under setting [1], the concentration for half-maximal inhibition (IC50) worked out at 5.23 nM. The molecule `O=C(O)COc1ccc(F)cc1C1c2ccccc2CCN1C(=O)CNS(=O)(=O)c1cccc(F)c1` (racemic) [Example 207] came in with a half-inhibitory concentration (IC50) under setting [2] of 347 nM. `O=C(O)COc1ccc(F)cc1C1c2cccc(Br)c2CCN1C(=O)OCc1ccccc1` (racemic) [Example 7, (±)-5-Bromo-1-(2-carboxymethoxy-5-fluoro-phenyl)-3,4-dihydro-1H-isoquinoline-2-carboxylic acid benzyl ester] showed an IC50 under setting [2] of 7.9 nM. On to `O=C(O)COc1ccc(F)cc1C1c2ccccc2CCN1C(=O)CCOc1ccccc1F` (racemic) [Example 54], for which the IC50 under setting [2] turned out to be 32.2 nM. Under setting [1], `Cc1nn(CCC(=O)N2Cc3ccccc3C2c2cc(Cl)ccc2OCC(=O)O)c2cccc(Cl)c12` (single isomer, unassigned) [Example 539] showed an IC50 of 235 nM. For the molecule `O=C(O)COc1ccc(F)cc1C1c2ccccc2CCN1C(=O)Cc1cccc2ccccc12` (racemic) [Example 47, (±)-{4-Fluoro-2-[2-(2-naphthalen-1-yl-acetyl)-1,2,3,4-tetrahydro-isoquinolin-1-yl]-phenoxy}-acetic acid], under setting [2], the IC50 stood at 198 nM. The same measure, in the same setting: the result for `O=C(O)COc1ccc(Br)cc1C1c2cc(F)c(F)cc2CCN1C(=O)OCc1ccccc1` (racemic) [Example 10, (±)-1-(5-Bromo-2-carboxymethoxy-phenyl)-6,7-difluoro-3,4-dihydro-1H-isoquinoline-2-carboxylic acid benzyl ester] reads 74 nM; that for `CCn1c(C)c(CCC(=O)N2CCc3ccccc3C2c2cc(F)ccc2OCC(=O)O)c2ccccc21` (racemic) [Example 52, (±)-(2-{2-[3-(1-Ethyl-2-methyl-1H-indol-3-yl)-propionyl]-1,2,3,4-tetrahydro-isoquinolin-1-yl}-4-fluoro-phenoxy)-acetic acid], 600 nM.

In the case of `COc1cccc(CCCC(=O)N2CCc3ccccc3C2c2cc(Cl)ccc2OCC(=O)O)c1` (racemic) [Example 114, (±)-(4-Chloro-2-{2-[4-(3-methoxy-phenyl)-butyryl]-1,2,3,4-tetrahydro-isoquinolin-1-yl}-phenoxy)-acetic acid], the half-maximal inhibitory concentration (IC50) under setting [2] turned out to be 34.5 nM. The same measure, in the same setting: the result for `COc1cccc(OC)c1COC(=O)N1CCc2ccccc2C1c1cc(Cl)ccc1OCC(=O)O` (racemic) [Example 244] reads 7.67 nM; that for `O=C(O)COc1ccc(Cl)cc1C1c2ccccc2CCN1C(=O)OCC1CCCCC1` (racemic) [Example 262], 9.43 nM. Regarding `Cc1cc(COC(=O)N2CCc3ccccc3C2c2cc(Cl)ccc2OCC(=O)O)no1` (racemic) [Example 270], the concentration for half-maximal inhibition (IC50) under setting [2] amounted to 8.31 nM. Turning to `O=C(O)COc1ccc(Cl)cc1C1c2cc(F)ccc2CCN1C(=O)OCc1ccccc1` (racemic) [Example 365], the concentration for half-maximal inhibition (IC50) under setting [1] turned out to be 37.8 nM. For `O=C(O)COc1ccc(Cl)cc1C1c2cc(F)cc(F)c2CCN1C(=O)OCc1ccccc1` (racemic) [Example 43, (±)-1-(2-Carboxymethoxy-5-chloro-phenyl)-5,7-difluoro-3,4-dihydro-1H-isoquinoline-2-carboxylic acid benzyl ester], under setting [2], the IC50 is 4.94 nM. For `CCCCNC(=O)N1CCc2ccccc2C1c1cc(Cl)ccc1OCC(=O)O` (racemic) [Example 496], the 50% inhibitory concentration (IC50) under setting [1] turned out to be 62.7 nM.

For `O=C(O)COc1ccc(F)cc1C1c2ccccc2CCN1C(=O)CCCCc1ccccc1` (racemic) [Example 143, (±)-{4-Fluoro-2-[2-(5-phenyl-pentanoyl)-1,2,3,4-tetrahydro-isoquinolin-1-yl]-phenoxy}-acetic acid], the IC50 under setting [2] is 395 nM.

In the case of `Cc1cc(COC(=O)N2CCc3ccccc3[C@H]2c2cc(Cl)ccc2OCC(=O)O)n(C)n1` [Example 288, (S)-1-(2-Carboxymethoxy-5-chloro-phenyl)-3,4-dihydro-1H-isoquinoline-2-carboxylic acid 2,5-dimethyl-2H-pyrazol-3-ylmethyl ester], the IC50 under setting [1] is 0.41 nM. `Cn1cncc1COC(=O)N1CCc2c(ccc(F)c2F)[C@H]1c1cc(Cl)ccc1OCC(=O)O` [Example 315, (S)-1-(2-Carboxymethoxy-5-chloro-phenyl)-5,6-difluoro-3,4-dihydro-1H-isoquinoline-2-carboxylic acid 3-methyl-3H-imidazol-4-ylmethyl ester]: under setting [1], the 50% inhibitory concentration (IC50) stood at 2.82 nM.

`COc1ccc(OC(=O)N2CCc3ccccc3C2c2cc(F)ccc2OCC(=O)O)cc1` (racemic) [Example 173]: under setting [2], the half-inhibitory concentration (IC50) came to 102 nM. In the case of `Cc1nc(CC(=O)N2CCc3ccccc3C2c2cc(F)ccc2OCC(=O)O)cs1` (racemic) [Example 57, (±)-(4-Fluoro-2-{2-[2-(2-methyl-thiazol-4-yl)-acetyl]-1,2,3,4-tetrahydro-isoquinolin-1-yl}-phenoxy)-acetic acid], the concentration for half-maximal inhibition (IC50) under setting [2] was determined as 730 nM. `COc1ccc2[nH]cc(CCC(=O)N3CCc4cc(F)ccc4C3c3cc(Cl)ccc3OCC(=O)O)c2c1` (racemic) [Example 433] had a half-maximal inhibitory concentration (IC50) under setting [1] of 90.1 nM. On to `COCCC(=O)N1CCc2ccccc2C1c1cc(Cl)ccc1OCC(=O)O` (racemic) [Example 70, (±)-{4-Chloro-2-[2-(3-methoxy-propionyl)-1,2,3,4-tetrahydro-isoquinolin-1-yl]-phenoxy}-acetic acid], for which, under setting [2], the IC50 came to 139 nM. Regarding `O=C(O)COc1ccc(Cl)cc1[C@@H]1c2ccc(F)cc2CCN1C(=O)OCc1ccccc1` [Example 367], the IC50 under setting [1] is 4.89 nM. Take `N#Cc1cccc(COC(=O)N2CCc3ccccc3C2c2cc(Cl)ccc2OCC(=O)O)c1` (racemic) [Example 257]: under setting [2], the IC50 was found to be 5.72 nM. The molecule `O=C(O)COc1ccc(Cl)cc1C1c2cccc(F)c2CCN1C(=O)C#Cc1ccccc1` (racemic) [Example 122, (±)-{4-Chloro-2-[5-fluoro-2-(3-phenyl-propynoyl)-1,2,3,4-tetrahydro-isoquinolin-1-yl]-phenoxy}-acetic acid] showed an IC50 under setting [2] of 196 nM. Turning to `CCS(=O)(=O)c1ccc2c(c1)C(c1cc(F)ccc1OCC(=O)O)N(C(=O)OCc1ccccc1)CC2` (racemic) [Example 181], under setting [2], the half-inhibitory concentration (IC50) came to 572 nM. On the same count and under the same terms, the result for `O=C(O)COc1ccc(Cl)cc1[C@@H]1c2cccc(F)c2CCN1C(=O)OCc1ccccc1` [Example 31, (S)-1-(2-Carboxymethoxy-5-chloro-phenyl)-5-fluoro-3,4-dihydro-1H-isoquinoline-2-carboxylic acid benzyl ester] reads 1.41 nM; that for `O=C(O)COc1ccc(-c2ccc(F)cc2)cc1C1c2ccccc2CCN1C(=O)OCc1ccccc1` (racemic) [Example 189, (±)-1-(4-Carboxymethoxy-4′-fluoro-biphenyl-3-yl)-3,4-dihydro-1H-isoquinoline-2-carboxylic acid benzyl ester], 23.3 nM.

Under setting [1], `O=C(O)COc1ccc(Cl)cc1C1c2ccccc2CCN1C(=O)CCN1CCSC1=O` (racemic) [Example 453] showed an IC50 of 312 nM. For the molecule `O=C(O)COc1ccc(F)cc1C1c2ccccc2CCN1C(=O)Cc1nc2ccccc2[nH]1` (racemic) [Example 62], the IC50 under setting [2] worked out at 794 nM. Under setting [1], `O=C(O)COc1ccc(Cl)cc1C1c2ccccc2CCN1C(=O)COc1ccc(Cl)cc1` (racemic) [Example 412] came in with an IC50 of 40.2 nM. Regarding `O=C(O)CCCOc1ccc(F)cc1C1c2ccccc2CCN1C(=O)OCc1ccccc1` (racemic) [Example 217, (±)-1-[2-(3-Carboxy-propoxy)-5-fluoro-phenyl]-3,4-dihydro-1H-isoquinoline-2-carboxylic acid benzyl ester], the half-inhibitory concentration (IC50) under setting [2] came to 110 nM.
